Experimental data published in patent publication US20060287247A1, “Halogen-substituted thienyl compounds” (priority 2001, published 2006).

Key:
[1] = test system: C. albicans ATCC 38247; experiment: NCCLS broth microdilution MIC (antifungal); assay type: cell-based; conditions: E = C. albicans ATCC 38247
Experimental: (§1) Compounds according to this invention were screened for their in vitro activities against selected species of bacteria and fungi. The minimal inhibition concentration (MIC) of these compounds was determined using the National Committee for Clinical Laboratory Standards (NCCLS) broth microdilution assay in microtiter plates, as set forth in: (1) the guidelines of the National Committee for Clinical Laboratory Standards (NCCLS) Document M7-A4 (NCCLS, 1997); (2) the guidelines of the National Committee for Clinical Laboratory Standards (NCCLS) Document M11-A4 (NCCLS, 1997); and (3) the guidelines and reference method of the National Committee for Clinical Laboratory Standards (NCCLS) Document M27-T (NCCLS, 1995). For antifungal essays, the method recommended in Murray, P R., 1995 Manual of Clinical Microbiology (ASM Press, Washington, D.C.), was employed. […]

[2] = test system: B. cereus ATCC 11778; experiment: NCCLS broth microdilution MIC; assay type: cell-based, Bacillus cereus; conditions: C = B. cereus ATCC 11778
Experimental: as §1

[3] = test system: 5′-AAAAAGTACAAAAA-3′; assay type: binding; conditions: DNA sequence 5′-AAAAAGTACAAAAA-3′; pH 7.0, 22° C.
Experimental: (§2) A number of compounds according to this invention were screened for their ability to bind to three DNA sites, using DNase I footprinting. Generally, the procedure described in Dervan, WO 98/50582 (1998), was followed.
(§3) A plasmid was prepared by hybridizing two sets of 5′-phosphorylated complementary oligonucleotides, one set being
(§4) The target sites and their complements are identified in bold underline.
(§5) The resulting duplexes were ligated to the large pUC19 AvaI/SalI restriction fragment. The 3′-P32 end-labeled EcoRI/PvuII fragment was prepared by digesting the plasmid with EcoRI and PvuII with simultaneous fill-in using Sequenase v. 2.0, [alpha-P32]-deoxyadenosine-5′-triphosphate, and [alpha-P32]-thymidine-5′-triphosphate, and isolating the cloned fragment by nondenaturing gel electrophoresis. Standard methods were used for all DNA manipulations, including A and G sequencing. See, e.g., Maxam et al., Methods Enzymol., 1980, 65, 499-560; Iverson et al., Methods Enzymol., 1987, 15, 7823-7830; and Sambrook et al., 1989, Molecular Cloning, 2nd ed., Cold Spring Harbor Laboratory Press: Cold Spring Harbor, N.Y.
(§6) Quantitative DNase I footprint titration experiments were carried out as described previously (Dervan, WO 98/50582, 1998, “Dervan '582”) with the following changes. All reactions were carried out in a total volume of 400 μL, with polyamide stock solution or water added to 15,000 cpm radiolabeled restriction fragment affording final solution conditions of 10 mM Tris.HCl, 10 mM KCl, 10 mM MgCl2, 5 mM CaCl2, pH 7.0 and 0.01 nM, 0.1 nM, 1.0 nM, 10.0 nM polyamide or no polyamide for reference lanes. The polyamides were allowed to equilibrate at 22° C. for 16 hr. Footprinting reactions were initiated with addition of 10 μL of a DNase I stock solution (at the appropriate concentration to give ˜50% intact DNA) containing 1 mM DTT and allowed to proceed for 7 min at 22° C. The reactions were stopped, ethanol precipitated, resuspended in loading buffer, heat denatured, and placed on ice as described in Dervan '582. The reaction products were separated on a precast 8% polyacrylamide denaturing sequencing Castaway gel with 32 preformed wells from Stratagene in 1× TBE at 2000 V. Gels were dried according to the manufacturer's instructions and exposed to a storage phosphor screen (Molecular Dynamics). Quantitation and data analysis were carried out as described in Dervan '582.

[4] = test system: 5′-AAAAAGCAAAAA-3′; assay type: binding; conditions: DNA sequence 5′-AAAAAGCAAAAA-3′; pH 7.0, 22° C.
Experimental: as §2, §3, §4, §5, §6

[5] = test system: 5′-AAAAAGACAAAAA-3′; assay type: binding; conditions: DNA sequence 5′-AAAAAGACAAAAA-3′; pH 7.0, 22° C.
Experimental: as §2, §3, §4, §5, §6

[6] = test system: E. coli ATCC 25922; experiment: NCCLS broth microdilution MIC; assay type: cell-based; conditions: D = E. coli ATCC 25922
Experimental: as §1

[7] = test system: S. pneumoniae ATCC 49619; experiment: NCCLS broth microdilution MIC; assay type: cell-based, Streptococcus pneumoniae; conditions: F = S. pneumoniae ATCC 49619
Experimental: as §1

[8] = test system: E. faecalis ATCC 29212; experiment: NCCLS broth microdilution MIC; assay type: cell-based, Enterococcus faecalis; conditions: B = E. faecalis ATCC 29212
Experimental: as §1

[9] = test system: S. aureus ATCC 29213; experiment: NCCLS broth microdilution MIC; assay type: cell-based, Staphylococcus aureus; conditions: A = S. aureus ATCC 29213
Experimental: as §1

Row | SMILES | Minimum Inhibitory Concentration (MIC) [1] | Minimum Inhibitory Concentration (MIC) [2] | Equilibrium Association Constant (Ka) [3] | Equilibrium Association Constant (Ka) [4] | Equilibrium Association Constant (Ka) [5] | Minimum Inhibitory Concentration (MIC) [6] | Minimum Inhibitory Concentration (MIC) [7] | Minimum Inhibitory Concentration (MIC) [8] | Minimum Inhibitory Concentration (MIC) [9]
1 | Cn1cc(NC(=O)c2cc(NC(=O)CCNC(=O)c3cc(NC(=O)c4cc(NC(=O)c5cc(Br)c(Br)s5)cn4C)cn3C)cn2C)cc1C(=O)NCCC(=O)NCCCCCCN [Id-2] | >32 µg/mL | +++ (+++ = MIC ≦4) | 5e+09 M⁻¹ | 5e+08 M⁻¹ | 5e+08 M⁻¹ | >32 µg/mL | +++ (+++ = MIC ≦4) | +++ (+++ = MIC ≦4) | +++ (+++ = MIC ≦4)
2 | CC(C)N(CCNC(=O)CCNC(=O)c1cc(NC(=O)c2cc(NC(=O)CCNC(=O)c3cc(NC(=O)c4cc(NC(=O)c5cc(Br)c(Br)s5)cn4C)cn3C)cn2C)cn1C)C(C)C [Id-3] | >32 µg/mL | +++ (+++ = MIC ≦4) | 5e+09 M⁻¹ | 5e+08 M⁻¹ | 5e+08 M⁻¹ | >32 µg/mL | +++ (+++ = MIC ≦4) | +++ (+++ = MIC ≦4) | +++ (+++ = MIC ≦4)
3 | Cn1cc(NC(=O)c2cc(NC(=O)CCNC(=O)c3cc(NC(=O)c4cc(NC(=O)c5cc(Br)c(Br)s5)cn4C)cn3C)cn2C)cc1C(=O)NCCC(=O)NCC(C)(C)CN [Id-4] | >32 µg/mL | +++ (+++ = MIC ≦4) | 5e+11 M⁻¹ | 5e+09 M⁻¹ | 1e+10 M⁻¹ | >32 µg/mL | +++ (+++ = MIC ≦4) | +++ (+++ = MIC ≦4) | +++ (+++ = MIC ≦4)
4 | Cn1cc(NC(=O)c2cc(NC(=O)CCNC(=O)c3cc(NC(=O)c4cc(NC(=O)c5cc(Br)c(Br)s5)cn4C)cn3C)cn2C)cc1C(=O)NCCC(=O)NCCN1CCCCC1 [Id-5] | >32 µg/mL | +++ (+++ = MIC ≦4) | 1e+11 M⁻¹ | 2e+09 M⁻¹ | 2e+10 M⁻¹ | >32 µg/mL | +++ (+++ = MIC ≦4) | +++ (+++ = MIC ≦4) | +++ (+++ = MIC ≦4)
5 | CCN(CC)CCCNC(=O)CCNC(=O)c1cc(NC(=O)c2cc(NC(=O)CCNC(=O)c3cc(NC(=O)c4cc(NC(=O)c5cc(Br)c(Br)s5)cn4C)cn3C)cn2C)cn1C [Id-6] | >32 µg/mL | +++ (+++ = MIC ≦4) | ≧1 × 10^11 M^−1 | 1e+10 M⁻¹ | 1e+10 M⁻¹ | >32 µg/mL | +++ (+++ = MIC ≦4) | +++ (+++ = MIC ≦4) | +++ (+++ = MIC ≦4)
